According to patent US12630498B2 (Genzyme Corporation, priority 2019, dated 2026):

Target: T1, human Cystic Fibrosis Transmembrane Conductance Regulator (CFTR) harboring the ΔF508 mutation (Homo sapiens, UniProt P13569, DEL508-508)
T1 construct: expressed in transfected cells; host or cells: H441 carcinoma line (G418-selected)
Test: H441 cell ΔF508-CFTR-HRP cell surface assay (Emax and EC50)
Assay type: cell-based
Conditions: for Emax: NCI-H441, NA = Not active
Description: Example 315: H441 Cell Emax and EC50 Two cell lines were used, the H441 carcinoma line and the CFHBE41o- (41o-) human bronchial epithelial line. Both cell lines expressed human Cystic Fibrosis Transmembrane Conductance Regulator (CFTR) harboring the ΔF508 mutation and with an in-frame fusion in CFTR extracellular loop 4 of Horse Radish Peroxidase (HRP) under control of the CMV promoter. In the presence of the HRP tag, ΔF508-CFTR transported to the cell surface was detectable upon addition of an HRP substrate (Luminata Forte). Both cell types were cultivated at 37° C. with CO2. […] For both cell types, the medium was changed every other day unless the culture was at low % confluence. Cells were used for the assays at 75% confluence. To a polypropylene (PP) 384-well plate, 15 pls DMSO was added to all wells in columns 1-22 and 24 (low Control). 15 μls of 260 μM VX809 (Lumacaftor), Selleckchem […], was added to column 23 wells (high Control). 15 pls of 10 mM test compound or VX809 (control) were added to wells of row A. Serial dilutions of Row A compound were performed 2×15 pls in rows A through 0 (15-point). A PP, 384-well plate containing the appropriate cell culture medium was prepared for each assay plate with 100 pls per well. For the doxycycline-induced 41o-cells, doxycycline for both the assay plate and the medium dilution plate was added at 0.0005 mg/ml to the medium. Both cell lines were plated for the assay at 30 pls per 384-well at 3.4×10 e^5 cells per ml ( 10K cells/well). H441 cells were plated on opaque, white, Corning plate 3704. 41o-cells were plated on collagen-coated opaque, white, Corning plate 356665. For 41o-cells, doxycycline was added to the medium. Using FX (Beckman) protocol, 10 pls diluted compound or medium was added per well to the Assay Plate as: 2 pls DMSO Dilution plate well was diluted in 100 pls of the Medium Dilution Plate well, mixed, and 10 pls was transferred to the Assay Plate. The final assay dilution series was 24.5, 12.3, 6.1, 3.1, 1.5, 0.8, 0.4, 0.2, 0.1, 0.05, 0.02, 0.01, 0.006, 0.003, 0.001 and 0 μM. The 41o-assay plates were incubated at 37° C. w/CO2, the H441 assay plates were incubated at 27° C. w/CO2, each overnight for two nights. After being brought to room temperature, the assay plate liquid was removed. 30 uls of Luminata Forte (Millipore ELLUF0100) was added per well and incubated at room temperature for 10 min. The plates were then read on a Topcount, protocol LumiMatti (CPS, luminescence). The data was analyzed for % of maximum, maximum VX809 signal, and EC50 using Pearl and SPEED tools.

T1 sequence (P13569 with tags, fused parts or gaps DEL508-508): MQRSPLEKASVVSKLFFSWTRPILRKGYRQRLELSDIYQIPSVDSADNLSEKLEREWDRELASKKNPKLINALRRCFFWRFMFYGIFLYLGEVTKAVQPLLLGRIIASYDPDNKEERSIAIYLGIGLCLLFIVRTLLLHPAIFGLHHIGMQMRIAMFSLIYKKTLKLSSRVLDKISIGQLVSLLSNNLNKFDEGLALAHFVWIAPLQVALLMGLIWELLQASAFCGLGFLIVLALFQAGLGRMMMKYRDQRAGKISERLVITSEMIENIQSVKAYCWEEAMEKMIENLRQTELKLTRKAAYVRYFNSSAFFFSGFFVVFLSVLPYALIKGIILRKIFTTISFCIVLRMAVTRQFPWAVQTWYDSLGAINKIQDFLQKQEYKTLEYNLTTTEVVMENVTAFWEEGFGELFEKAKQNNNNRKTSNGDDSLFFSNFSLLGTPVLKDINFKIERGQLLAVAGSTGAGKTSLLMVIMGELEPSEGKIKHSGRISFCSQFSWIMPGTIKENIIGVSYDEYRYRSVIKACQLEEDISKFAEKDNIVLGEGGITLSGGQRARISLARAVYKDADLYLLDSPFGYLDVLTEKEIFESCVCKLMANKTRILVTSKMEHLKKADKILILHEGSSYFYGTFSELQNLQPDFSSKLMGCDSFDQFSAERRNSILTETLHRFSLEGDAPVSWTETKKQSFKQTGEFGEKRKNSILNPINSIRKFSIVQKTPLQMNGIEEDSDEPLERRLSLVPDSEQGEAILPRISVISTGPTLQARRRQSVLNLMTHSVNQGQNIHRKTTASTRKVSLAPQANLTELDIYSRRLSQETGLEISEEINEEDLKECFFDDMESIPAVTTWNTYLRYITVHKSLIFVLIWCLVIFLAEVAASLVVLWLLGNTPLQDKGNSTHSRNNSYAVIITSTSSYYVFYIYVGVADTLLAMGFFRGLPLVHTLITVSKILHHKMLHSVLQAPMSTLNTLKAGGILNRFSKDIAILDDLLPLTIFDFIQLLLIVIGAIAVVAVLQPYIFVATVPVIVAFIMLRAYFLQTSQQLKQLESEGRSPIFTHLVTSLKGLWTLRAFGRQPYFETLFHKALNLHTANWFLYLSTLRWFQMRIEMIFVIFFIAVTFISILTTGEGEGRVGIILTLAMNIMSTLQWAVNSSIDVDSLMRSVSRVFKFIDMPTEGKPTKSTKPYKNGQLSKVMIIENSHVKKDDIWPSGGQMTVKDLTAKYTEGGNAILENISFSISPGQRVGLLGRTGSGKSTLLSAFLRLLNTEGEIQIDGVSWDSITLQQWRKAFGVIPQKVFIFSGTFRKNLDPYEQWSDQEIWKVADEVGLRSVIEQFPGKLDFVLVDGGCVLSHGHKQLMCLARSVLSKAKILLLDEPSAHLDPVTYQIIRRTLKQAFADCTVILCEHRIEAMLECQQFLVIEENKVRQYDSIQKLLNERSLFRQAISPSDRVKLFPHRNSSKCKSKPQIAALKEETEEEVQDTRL

Row | Compound | EC50 | Emax
1 | Cc1cc(COc2c(C(=O)NC(C(=O)O)[C@@H](C)OCc3ccccc3)ccc3ccccc23)no1 (stereo partly drawn) [Example 145, (3R)-3-(benzyloxy)-2-(1-((5-methylisoxazol-3-yl)methoxy)-2-naphthamido)butanoic Acid] | 12 µM | 72.6%
2 | CC(C)(C)[C@H](NC(=O)c1ccc2ccc(C(F)(F)F)cc2c1OCc1ccc(C(F)(F)F)cc1)C(=O)O [compound 293, (S)-3,3-dimethyl-2-(7-(trifluoromethyl)-1-((4-(trifluoromethyl)benzyl)oxy)-2-naphthamido)butanoic Acid] | 0.3 µM | 327%
3 | CC(C)(C)C#CCOc1c(C(=O)N[C@H](C(=O)O)C(C)(C)C)ccc2ccccc12 [Example 267, (2S)-2-[[1-(4,4-dimethylpent-2-ynoxy)naphthalene-2-carbonyl]amino]-3,3-dimethyl-butanoic Acid] | 3.4 µM | 288%
4 | O=C(N[C@@H](Cc1ccccc1)C(=O)O)c1ccc2ccccc2c1OCc1ccc(Cl)cc1 [Example 98, (1-((4-chlorobenzyl)oxy)-2-naphthoyl)-L-phenylalanine] |  | 6%
5 | COCC[C@H](NC(=O)c1ccc2ccccc2c1OCc1ccc(C(F)(F)F)cc1)C(=O)O [Example 137, O-methyl-N-(1-((4-(trifluoromethyl)benzyl)oxy)-2-naphthoyl)-L-homoserine] | 16.4 µM | 38.4%
6 | O=C(N[C@H](C(=O)O)C1CCCC1)c1ccc2ccccc2c1OCc1ccc(S(=O)(=O)C(F)(F)F)cc1 [Example 156, (S)-2-cyclopentyl-2-(1-((4-((trifluoromethyl)sulfonyl)benzyl)oxy)-2-naphthamido)acetic Acid] | 1.9 µM | 51.7%
7 | NC12CCC(C(NC(=O)c3ccc4cc(F)ccc4c3OCc3ccc(C(F)(F)F)cc3)C(=O)O)(CC1)CC2 (stereo not shown) [Example 185, 2-(4-aminobicyclo[2.2.2]octan-1-yl)-2-(6-fluoro-1-((4-(trifluoromethyl)benzyl)oxy)-2-naphthamido)acetic Acid] |  | 14%
8 | O=C(N[C@H](C(=O)O)C12CC(C(F)(F)F)(C1)C2)c1ccc2cc(F)ccc2c1OCc1ccc(C(F)(F)F)cc1 [Example 15, (S)-2-(6-fluoro-1-((4-(trifluoromethyl)benzyl)oxy)-2-naphthamido)-2-(3-(trifluoromethyl)bicyclo[1.1.1]pentan-1-yl)acetic Acid] | 1.7 µM | 48.4%
9 | CC(C)(c1ccccc1)[C@H](NC(=O)c1ccc2cc(F)ccc2c1OCc1ccc(SC(F)(F)F)cc1)C(=O)O [Example 22, (S)-2-(6-fluoro-1-((4-((trifluoromethyl)thio)benzyl)oxy)-2-naphthamido)-3-methyl-3-phenylbutanoic Acid] | 0.3 µM | 63.6%
10 | CC(C)(C)C[C@H](NC(=O)c1ccc2ccccc2c1OCc1ccc(OC(F)F)cc1)C(=O)O [Example 108, (S)-2-(1-((4-(difluoromethoxy)benzyl)oxy)-2-naphthamido)-4,4-dimethylpentanoic Acid] |  | 4.7%
11 | O=C(NC(C(=O)O)C(C(F)(F)F)C(F)(F)F)c1ccc2ccccc2c1OCc1ccc(C(F)(F)F)cc1 (stereo not shown) [Example 181, 4,4,4-trifluoro-3-(trifluoromethyl)-2-(1-((4-(trifluoromethyl)benzyl)oxy)-2-naphthamido)butanoic Acid] | 13.7 µM | 93.2%
12 | O=C(N[C@H](C(=O)O)C(c1ccccc1)c1ccccc1)c1ccc2ccccc2c1OCc1ccc(C(F)(F)F)cn1 [Example 132, (S)-3,3-diphenyl-2-(1-((5-(trifluoromethyl)pyridin-2-yl)methoxy)-2-naphthamido)propanoic Acid] | 11.6 µM | 49.2%
13 | O=C(N[C@@H](Cc1ccccc1)C(=O)O)c1ccc2ccccc2c1OCc1ccc(Br)cc1 [Example 122, (1-((4-bromobenzyl)oxy)-2-naphthoyl)-L-phenylalanine] | 0.3 µM | 24.5%
14 | CC(C)(C)[C@H](NC(=O)c1ccc2ccccc2c1OCC#CC1CC1)C(=O)O [Example 270, (2S)-2-[[1-(3-cyclopropylprop-2-ynoxy)naphthalene-2-carbonyl]amino]-3,3-dimethyl-butanoic Acid] | 12.2 µM | 166%
15 | O=C(N[C@H](C(=O)O)C12CC(C(F)(F)F)(C1)C2)c1ccc2ccccc2c1OCc1ccc(S(F)(F)(F)(F)F)cc1 [Example 24, (S)-2-(1-((4-(pentafluoro-λ^6-sulfanyl)benzyl)oxy)-2-naphthamido)-2-(3-(trifluoromethyl)bicyclo[1.1.1]pentan-1-yl)acetic Acid] | 1.1 µM | 66.1%
16 | CC(C)(C)[C@H](NC(=O)c1ccc2ccccc2c1OCc1ccc(S(C)(=O)=O)cc1)C(=O)O [Example 66, (S)-3,3-dimethyl-2-(1-((4-(methylsulfonyl)benzyl)oxy)-2-naphthamido)butanoic Acid] | 2.1 µM | 12.8%
17 | C[C@@H](OCc1ccccc1)C(NC(=O)c1ccc2ccccc2c1OCc1ccc(C(F)(F)F)cc1)C(=O)O (stereo partly drawn) [Example 144, (3R)-3-(benzyloxy)-2-(1-((4-(trifluoromethyl)benzyl)oxy)-2-naphthamido)butanoic Acid] | 4.5 µM | 140%
18 | COc1ccc2c(OCc3ccc(C(F)(F)F)cc3)c(C(=O)N[C@H](C(=O)O)C(C)(C)C)ccc2c1 [Example 38, (S)-2-(6-methoxy-1-((4-(trifluoromethyl)benzyl)oxy)-2-naphthamido)-3,3-dimethylbutanoic Acid] | 1.1 µM | 80.8%
19 | CC(C)(C)C[C@H](NC(=O)c1ccc2ccccc2c1OCc1ccc(S(=O)(=O)C(F)(F)F)cc1)C(=O)O [Example 157, (S)-4,4-dimethyl-2-(1-((4-((trifluoromethyl)sulfonyl)benzyl)oxy)-2-naphthamido)pentanoic Acid] | 7.1 µM | 55%
20 | CC(C)C#CCOc1c(C(=O)N[C@H](C(=O)O)C(C)(C)C)ccc2ccccc12 [Example 235, (2S)-3,3-dimethyl-2-[[1-(4-methylpent-2-ynoxy)naphthalene-2-carbonyl]amino]butanoic Acid] | 15.2 µM | 211%
21 | O=C(N[C@@H](Cc1ccncc1)C(=O)O)c1ccc2ccccc2c1OCc1ccc(C(F)(F)F)cc1 [Example 103, (S)-3-(pyridin-4-yl)-2-(1-((4-(trifluoromethyl)benzyl)oxy)-2-naphthamido)propanoic Acid] |  | 22.4%
22 | CCCC(C)(CC)[C@H](NC(=O)c1ccc2ccc(F)cc2c1OCc1ccc(OC(F)(F)F)cc1)C(=O)O (stereo partly drawn) [compound 290, (2S)-3-ethyl-2-(7-fluoro-1-((4-(trifluoromethoxy)benzyl)oxy)-2-naphthamido)-3-methylhexanoic Acid] | 0.2 µM | 225%
23 | CC(C)(C)[C@H](NC(=O)c1ccc2ccccc2c1OCC1(C(F)(F)F)CC1)C(=O)O [Example 268, (2S)-3,3-dimethyl-2-[[1-[[1-(trifluoromethyl)cyclopropyl]methoxy]naphthalene-2-carbonyl]amino]butanoic Acid] | 15.4 µM | 74%
24 | CC(C)(C)OC(=O)C[C@H](NC(=O)c1ccc2ccccc2c1OCc1ccc(C(F)(F)F)cc1)C(=O)O (stereo in doubt) [Example 151, 4-(tert-butoxy)-4-oxo-2-(1-((4-(trifluoromethyl)benzyl)oxy)-2-naphthamido)butanoic Acid] | 13.4 µM | 68.7%
25 | NC(N)=Nc1ccc(C[C@@H](NC(=O)c2ccc3ccccc3c2OCc2ccc(C(F)(F)F)cc2)C(=O)O)cc1 [Example 105, (R)-3-(4-((diaminomethylene)amino)phenyl)-2-(1-((4-(trifluoromethyl)benzyl)oxy)-2-naphthamido)propanoic Acid] |  | 18.8%
26 | CC1(C(NC(=O)c2ccc3ccccc3c2OCc2ccc(S(C)(=O)=O)cc2)C(=O)O)CCCCC1 (stereo not shown) [Example 44, 2-(1-methylcyclohexyl)-2-(1-((4-(methylsulfonyl)benzyl)oxy)-2-naphthamido)acetic Acid] | 5.1 µM | 19.9%
27 | O=C(N[C@@H](Cc1ccc(C(F)(F)F)cc1)C(=O)O)c1ccc2ccccc2c1OCC1CCCCC1 [Example 200, (S)-2-(1-(cyclohexylmethoxy)-2-naphthamido)-3-(4-(trifluoromethyl)phenyl)propanoic Acid] | 20.5 µM | 65.4%
